Laboratory results from patent US10316371B2, “Screening methods for identifying specific Staphylococcus aureus inhibitors” (TRANA DISCOVERY, INC., priority 2011, dated 2019).
Values after ≈ are worked out from the molar mass of the structure shown.

Experiments:
Format in all cases: cell-based
Mammalian Cell Toxicity [1] = settings: human, MRC5 cells
[2] = tested on: non-S. aureus bacterial strains (Staph epi, E. faecium, E. faecalis, S. pneumoniae); test: Re-test against other bacteria; settings: Gm (+) organisms (e.g. Staph epi, E. faecium and E. faecalis)
Excerpt: (§1) The compounds were re-tested against other bacteria, including Staphylococcus epidermidis (ATCC 35984), Staphylococcus epidermidis (MRSE), E. faecium 134529, E. faecium 145494, […], E. faecium 161651, S. pneumoniae 49619, and S. pneumoniae 149389.
In some cases, the compounds were as active, or nearly so, against the non-S. aureus bacterial strains. While not wishing to be bound to a particular theory, it is believed that these compounds function by stabilizing or inhibiting the complex between the mRNA Shine-Dalgarno sequence, and the anti-Shine Delgarno sequence in the ribosome, and inhibit protein translation in this manner, rather than by inhibiting the ASL Arg, and the codon encoding arginine (AGA), which is specific to S. aureus.

E. faecium 134529 = test: MIC; settings: Enterococcus faecium; E. faecium 134529; read-out: MIC
Protocol: as §1
(§2) A series of compounds were evaluated for their activity against drug resistant S. aureus, including MSSA and MRSA strains.

E. faecium 145494 = test: MIC; settings: Enterococcus faecium; E. faecium 145494; read-out: MIC
Protocol: as §1, §2

S. pneumoniae 49619 = test: MIC; settings: Streptococcus pneumoniae; S. pneumoniae 49619; read-out: MIC
Protocol: as §1, §2

E. faecalis 161651 = test: MIC; settings: Enterococcus faecalis; E. faecalis 161651; read-out: MIC
Protocol: as §1, §2

S. epidermidis 35984 = test: MIC; settings: Staphylococcus epidermidis; S. epidermidis 35984; read-out: MIC
Protocol: as §1, §2

E. faecalis 29212 = test: MIC; settings: Enterococcus faecalis; E. faecalis 29212; read-out: MIC
Protocol: as §1, §2

S. epidermidis MRSE 01 = test: MIC; settings: Staphylococcus epidermidis; S. epidermidis MRSE 01; read-out: MIC
Protocol: as §1, §2

S. pneumoniae 149389 = test: MIC; settings: Streptococcus pneumoniae; S. pneumoniae 149389; read-out: MIC
Protocol: as §1, §2

K. pneumoniae 700603 = test: MIC; settings: Klebsiella pneumoniae; K. pneumoniae 700603; read-out: MIC
[3] = tested on: SA 29213 (Staphylococcus aureus (ATCC 29213)); test: MIC; settings: ATCC29213, SA 29213, read-out: MIC
Protocol: (§3) The strains included Staphylococcus aureus, Methicillin Resistant (ATCC 33591), Methicillin-Resistant Staphylococcus aureus USA300, Staphylococcus aureus 158, Staphylococcus aureus 22, Staphylococcus aureus 2, Staphylococcus aureus (ATCC 29213), and Staphylococcus aureus 182.
as §2

[4] = tested on: SA 22 (Staphylococcus aureus 22); test: MIC; settings: SA 22, read-out: MIC
Protocol: as §3, §2

[5] = tested on: SA 158 (Staphylococcus aureus 158); test: MIC; settings: SA 158, read-out: MIC
Protocol: as §3, §2

[6] = tested on: SA 2 (Staphylococcus aureus 2); test: MIC; settings: SA 2, read-out: MIC
Protocol: as §3, §2

[7] = tested on: SA USA 300 (Methicillin-Resistant Staphylococcus aureus USA300); test: MIC; settings: SA USA 300, read-out: MIC
Protocol: as §3, §2

[8] = tested on: SA 182 (Staphylococcus aureus 182); test: MIC; settings: SA 182, read-out: MIC
Protocol: as §3, §2

[9] = tested on: SA 33591 (Staphylococcus aureus, Methicillin Resistant (ATCC 33591)); test: MIC; settings: ATCC33591, SA 33591, read-out: MIC
Protocol: as §3, §2

E. coli 25922 = test: MIC; settings: Escherichia coli; E. coli 25922; read-out: MIC
Mammalian Cell Toxicity [10] = settings: mouse, 3T3 cells

Structure (SMILES) | CC50 (Mammalian Cell Toxicity [1]) | spectrum of activity [2] | MIC (E. faecium 134529) | MIC (E. faecium 145494) | MIC (S. pneumoniae 49619) | MIC (E. faecalis 161651) | MIC (S. epidermidis 35984) | MIC (E. faecalis 29212) | MIC (S. epidermidis MRSE 01) | MIC (S. pneumoniae 149389) | MIC (K. pneumoniae 700603) | MIC [3] | MIC [4] | MIC [5] | MIC [6] | MIC [7] | MIC [8] | MIC [9] | MIC (E. coli 25922) | CC50 (Mammalian Cell Toxicity [10])
Cc1ccc2nc(-c3ccc(NC(=O)CN4CCN(CCO)CC4)cc3)sc2c1 [Compound #169, 2-[4-(2-hydroxyethyl)-1-piperazinyl]-N-[4-(6-methyl-1,3-benzothiazol-2-yl)phenyl]acetamide] | < 2 µg/mL | broad spectrum for Gm (+) organisms | 16 µg/mL (≈ 39 µM) | 16 µg/mL (≈ 39 µM) | 64 µg/mL (≈ 156 µM) | 16 µg/mL (≈ 39 µM) | 16 µg/mL (≈ 39 µM) | 64 µg/mL (≈ 156 µM) | 16 µg/mL (≈ 39 µM) | 128 µg/mL (≈ 312 µM) | > 128 µg/mL | 16 µg/mL (≈ 39 µM) | 16 µg/mL (≈ 39 µM) | 128 µg/mL (≈ 312 µM) | 8 µg/mL (≈ 19.5 µM) | 8 µg/mL (≈ 19.5 µM) | 16 µg/mL (≈ 39 µM) | 32 µg/mL (≈ 77.9 µM) | > 128 µg/mL | < 2 µg/mL
Brc1ccc(-c2nc(N3CCNCC3)c3ccccc3n2)cc1 [Compound #880, 2-(4-bromophenyl)-4-(1-piperazinyl)-quinazoline] | 2.18 µg/mL (≈ 5.9 µM) | broad spectrum for Gm (+) organisms | 8 µg/mL (≈ 21.7 µM) | 4 µg/mL (≈ 10.8 µM) | 32 µg/mL (≈ 86.7 µM) | 8 µg/mL (≈ 21.7 µM) | 8 µg/mL (≈ 21.7 µM) | 8 µg/mL (≈ 21.7 µM) | 8 µg/mL (≈ 21.7 µM) | 32 µg/mL (≈ 86.7 µM) | > 128 µg/mL | 8 µg/mL (≈ 21.7 µM) | 8 µg/mL (≈ 21.7 µM) | 8 µg/mL (≈ 21.7 µM) | 4 µg/mL (≈ 10.8 µM) | 8 µg/mL (≈ 21.7 µM) | 8 µg/mL (≈ 21.7 µM) | 8 µg/mL (≈ 21.7 µM) | 64 µg/mL (≈ 173 µM) | 2.11 µg/mL (≈ 5.71 µM)
